Measurements from patent publication US12297206B2, “Method for synthesizing furoimidazopyridine compound, polymorphic substance and polymorphic substance of salt” (HANGZHOU HIGHLIGHTLL PHARMACEUTICAL CO., LTD, priority 2019, dated 2025).
Converted amounts (≈) assume the structure as drawn. Where two headings read alike, the source gives them in different places. Blank lines part the entries; values can stand above or below the compound they belong to.

How the values were obtained:
[1] = evaporated at room temperature
[2] = dissolved at about 50° C., transferred to −20° C.
Experimental: The temperature was maintained for 15 minutes, the solution was filterred with a 0.45 μm membrane when hot and was transferred to new sample bottles, the bottled were immediately transferred to a −20° C. refrigerator overnight, the solvent systems wherein solid was precipitated were centrifuged and the solid was collected, the solvent was volatilized at room temperature (20-25° C.) to dryness; the solvent systems wherein no solid was precipitated were placed to a −20° C. refrigerator until a large amount of solids precipitated.

[3] = Stability test 1: short-term solid state stability (high temperature and accelerated conditions); format: physicochemical; details: for Stability study: crystal form: 2 weeks (XRPD, DSC); for Appearance in solid state stability test: within 2 weeks, 60° C. and 40° C./75% RH
[4] = good solvents tetrahydrofuran, ethanol, isopropanol, methanol, acetone
Description: If no solid was precipitated, the system was stirred with the bottle opened until solid was precipitated.

[5] = Stability test 1: short-term solid state stability (high temperature and accelerated conditions); format: physicochemical
Experimental: For the open samples, the bottle cap was removed and the bottle neck was coverred with an aluminium-foil paper stabbed with pinholes to avoid cross contamination; for the closed samples, the bottled were coverred and sealed tightly. Samples were taken at weeks 1 and 2, respectively, the samples were diluted with a diluent (methanol/water (1/1) (v/v)), the liquid phase was injected according to the chromatographic conditions in Table 22 and the sample purities were determined.
The sample purities were calculated with an area normalization method.

[6] = room temperature and 50° C., days 3, 7 and 14
Experimental: The sample bottles (wrapped with a tin foil paper to protect from light) in a room temperature system were placed on Labquaker rotator for rotating 360°; the samples in a high temperature system were placed in a 50° C. thermostatic shaking incubator and were slurried, part of the suspension samples were taken on days 3, 7 and 14, respectively and were centrifuged, solid residue was collected, the solvents were volatilized at room temperature (20-25° C.) to dryness, the solid was collected.

[7] = Dynamic vapour sorption (DVS) moisture absorption; format: physicochemical
[8] = dissolved at about 50° C., slowly cooled at 6° C./h
Experimental: The temperature was maintained for 15 minutes, the solution was filterred with a 0.45 μm membrane when hot and transferred to new sample bottles, slowly cooled to room temperature at 6° C./h overnight, the sample bottles were placed in a refrigerator (2-8° C.), the solvent systems wherein solid precipitated were centrifuged and the solid was collected, the solvent was volatilized at room temperature (20-25° C.) to dryness; the solvent systems wherein no solid precipitated were placed in a −20° C. refrigerator until a large amount of solids precipitated.

physchem = details: 37 °C, thermodynamic from solid
Experimental: The samples were observed 5 minutes later, a quantity of sample or medium was supplemented to obtain mild suspension, and sampling was conduct at 30 minutes, 2 hour, 4 hours and 24 hours, respectively. The samples were centrifuged for 10 minutes at 12000 rpm to obtain the supernatant, the supernatant was diluted appropriately and was subjected to high performance liquid chromatography.
The sample concentration was calculated with an external standard method.

TYK2 = molecular target: T1, TYK2 (Homo sapiens, UniProt P29597); assay: TYK2 biochemical test (33P-ATP filter binding kinase assay, Reaction Biology Corp); details: kinase reaction 2 hours at room temperature
T1 construct: purchased Reaction Biology Corp, Malvern, PA (contract assay service)
T1 sequence (P29597 whole entry): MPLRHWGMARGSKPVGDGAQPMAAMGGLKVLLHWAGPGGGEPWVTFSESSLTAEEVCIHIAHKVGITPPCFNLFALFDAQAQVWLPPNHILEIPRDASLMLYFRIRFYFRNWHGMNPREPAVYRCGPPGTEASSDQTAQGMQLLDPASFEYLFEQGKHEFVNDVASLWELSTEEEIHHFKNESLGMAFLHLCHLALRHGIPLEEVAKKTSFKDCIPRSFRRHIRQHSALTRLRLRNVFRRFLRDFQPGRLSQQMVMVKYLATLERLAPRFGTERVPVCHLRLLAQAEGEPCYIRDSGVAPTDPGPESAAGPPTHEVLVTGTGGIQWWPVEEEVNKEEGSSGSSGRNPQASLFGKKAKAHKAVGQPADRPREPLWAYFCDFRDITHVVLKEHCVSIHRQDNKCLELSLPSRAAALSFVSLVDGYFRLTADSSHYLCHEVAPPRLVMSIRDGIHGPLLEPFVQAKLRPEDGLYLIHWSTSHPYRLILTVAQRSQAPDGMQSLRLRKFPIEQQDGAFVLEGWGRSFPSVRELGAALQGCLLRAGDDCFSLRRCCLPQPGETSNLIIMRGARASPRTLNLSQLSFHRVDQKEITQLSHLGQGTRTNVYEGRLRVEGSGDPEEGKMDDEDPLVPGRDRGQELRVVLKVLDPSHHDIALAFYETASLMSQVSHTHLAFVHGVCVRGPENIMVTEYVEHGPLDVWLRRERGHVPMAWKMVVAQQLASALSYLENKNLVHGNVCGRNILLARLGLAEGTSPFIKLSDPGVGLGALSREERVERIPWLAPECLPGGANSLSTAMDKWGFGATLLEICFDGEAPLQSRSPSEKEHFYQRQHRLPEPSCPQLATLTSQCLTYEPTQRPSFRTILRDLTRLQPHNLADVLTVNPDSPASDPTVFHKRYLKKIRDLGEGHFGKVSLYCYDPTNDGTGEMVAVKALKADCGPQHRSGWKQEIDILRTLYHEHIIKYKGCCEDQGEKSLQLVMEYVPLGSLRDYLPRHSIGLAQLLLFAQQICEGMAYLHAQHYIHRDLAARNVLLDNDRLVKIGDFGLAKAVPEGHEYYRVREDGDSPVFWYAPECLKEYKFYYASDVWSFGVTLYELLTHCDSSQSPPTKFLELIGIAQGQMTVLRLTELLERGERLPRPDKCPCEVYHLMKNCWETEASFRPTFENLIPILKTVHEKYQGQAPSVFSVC
Experimental: A suitable amount of a compound of formula I was weighed for TYK2 biochemical test.
The test was conducted by Reaction Biology Corp, Malvern, PA (Anastassiadis et al. Nat Biotechnol. 2011; 29(11):1039-45). The steps are briefly described as follows.
Basic reaction buffer: 20 mM Hepes (pH 7.5), 10 mM MgCl2, 1 mM EGTA, 0.02% Brij35, 0.02 mg/ml BSA, 0.1 mM Na3VO4, 2 mM DTT and 1% DMSO. The required cofactors were added to each kinase reaction.
1. Preparing the designated substrate in the newly prepared basic reaction buffer;
2. Transferring the required cofactor to the above matrix solution;
3. Transferring the designated kinase to the substrate solution and mixing well slightly;
4. Transferring a compound of formula I in DMSO to a kinase reaction mixture with Acoustic technique (Echo550; nanoliter range), culturing for 20 minutes at room temperature;
5. Introducing ^33P-ATP (specific activity: 10 μCi/μl) to the reaction mixture to trigger a reaction;
6. Culturing at room temperature and conducting a kinase reaction for 2 hours;
7. Plotting the reaction on P81 ion exchange paper;
8. Testing the kinase activity with a filter binding assay.

[9] = tested on: thrombopoietin-induced STAT3 phosphorylation; details: as reported for WO2018067422A1; cited from earlier work
[10] = tested on: IL-6-induced STAT3 phosphorylation; details: as reported for WO2018067422A1; cited from earlier work
JAK1 = JAK1 (Homo sapiens, UniProt P23458); details: as reported for WO2018067422A1; cited from earlier work
Chain of JAK1 (P23458 whole entry, species assumed): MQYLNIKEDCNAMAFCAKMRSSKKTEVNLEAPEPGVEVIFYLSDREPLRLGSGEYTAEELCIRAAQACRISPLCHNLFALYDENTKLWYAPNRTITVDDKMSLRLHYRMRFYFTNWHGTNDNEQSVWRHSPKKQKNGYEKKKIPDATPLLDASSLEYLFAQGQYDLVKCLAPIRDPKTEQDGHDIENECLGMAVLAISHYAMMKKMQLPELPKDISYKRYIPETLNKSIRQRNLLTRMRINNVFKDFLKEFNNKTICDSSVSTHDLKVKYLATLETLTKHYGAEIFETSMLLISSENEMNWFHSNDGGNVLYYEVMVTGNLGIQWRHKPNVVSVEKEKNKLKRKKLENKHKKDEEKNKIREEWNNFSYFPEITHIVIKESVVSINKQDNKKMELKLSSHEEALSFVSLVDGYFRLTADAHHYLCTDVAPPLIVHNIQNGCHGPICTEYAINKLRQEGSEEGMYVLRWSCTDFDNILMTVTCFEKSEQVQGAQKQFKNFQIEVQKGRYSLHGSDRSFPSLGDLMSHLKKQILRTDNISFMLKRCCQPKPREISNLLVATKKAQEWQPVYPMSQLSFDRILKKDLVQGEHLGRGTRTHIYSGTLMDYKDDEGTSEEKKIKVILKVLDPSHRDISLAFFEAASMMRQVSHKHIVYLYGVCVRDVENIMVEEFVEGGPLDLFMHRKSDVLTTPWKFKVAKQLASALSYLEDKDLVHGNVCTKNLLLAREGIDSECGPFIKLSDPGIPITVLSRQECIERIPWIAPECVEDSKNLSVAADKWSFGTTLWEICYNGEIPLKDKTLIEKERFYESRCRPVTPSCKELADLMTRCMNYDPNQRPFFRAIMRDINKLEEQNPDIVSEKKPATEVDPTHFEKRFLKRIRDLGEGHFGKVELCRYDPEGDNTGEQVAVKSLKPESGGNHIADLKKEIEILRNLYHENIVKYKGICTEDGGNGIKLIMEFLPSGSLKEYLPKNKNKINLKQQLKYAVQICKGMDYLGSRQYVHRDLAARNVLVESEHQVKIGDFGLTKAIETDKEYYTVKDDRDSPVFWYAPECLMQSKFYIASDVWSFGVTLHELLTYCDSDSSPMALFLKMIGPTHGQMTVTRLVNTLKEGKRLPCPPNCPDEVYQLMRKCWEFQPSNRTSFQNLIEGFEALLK

[11] = fasted-state simulated intestinal fluid (FaSSIF), fassif
[12] = fed-state simulated intestinal fluid (FeSSIF), fessif
[13] = simulated gastric fluid (SGF), simulated gastric fluid

Structure (SMILES): Cc1nc2cnc3ccoc3c2n1C1CCC(CC#N)OC1.Cc1nc2cnc3ccoc3c2n1C1CCC(CC#N)OC1.O=C(O)C(O)C(O)C(=O)O (stereo not shown)
Crystal form of precipitated solid ([1]; Acetone): Crystal form O
Crystal form of precipitated solid ([1]; Ethanol): Crystal form O
Crystal form of precipitated solid ([1]; Isopropanol): Crystal form O
Crystal form of precipitated solid ([1]; Methanol): Crystal form O
Crystal form of precipitated solid ([1]; Tetrahydrofuran): Crystal form O
Crystal form of precipitated solid ([2]; Ethanol): Crystal form O
Crystal form of precipitated solid ([2]; Isopropanol): Crystal form O
Crystal form of precipitated solid ([2]; Methanol): Crystal form O
Stability study: crystal form ([3]; 40° C./75% RH, open): Unchange
Stability study: crystal form ([3]; 60° C., sealed): Unchange
Appearance in solid state stability test [3]: didn't change
Product crystal form ([4]; Anti-solvent Ethyl acetate): Crystal form O
Product crystal form ([4]; Anti-solvent Methyl tert-butyl ether): Crystal form O
Product crystal form ([4]; Anti-solvent N-heptane): Crystal form O
Product crystal form ([4]; Anti-solvent Toluene): Crystal form O
Stability study (purity) ([5]; 0 day): 99.22 Area %
Stability study (purity) ([5]; 40° C./75% RH, open, 1 week): 99.31 Area %
Stability study (purity) ([5]; 40° C./75% RH, open, 2 weeks): 99.36 Area %
Stability study (purity) ([5]; 60° C., sealed, 1 week): 99.34 Area %
Stability study (purity) ([5]; 60° C., sealed, 2 weeks): 99.36 Area %
Crystal form after slurrying ([6]; Acetone): Crystal form O
Crystal form after slurrying ([6]; Ethanol): Crystal form O
Crystal form after slurrying ([6]; Ethyl acetate): Crystal form O
Crystal form after slurrying ([6]; Isopropanol): Crystal form O
Crystal form after slurrying ([6]; Methanol): Crystal form O
Crystal form after slurrying ([6]; Methyl tert-butyl ether): Crystal form O
Crystal form after slurrying ([6]; N-heptane): Crystal form O
Crystal form after slurrying ([6]; Tetrahydrofuran): Crystal form O
Crystal form after slurrying ([6]; Toluene): Crystal form O
Crystal form after moisture absorption (XRPD before and after the DVS test) [7]: doesn't change
Weight gain by moisture absorption (DVS) ([7]; at a humidity of 80% RH): 1.80%
Weight gain by moisture absorption (DVS) ([7]; from 0% RH to 95% RH, 25° C.): 6.85%
Crystal form of precipitated solid ([8]; Ethanol): Crystal form O
Crystal form of precipitated solid ([8]; Isopropanol): Crystal form O

Structure (SMILES): Cc1nc2cnc3ccoc3c2n1C1CCC(CC#N)OC1.O=P(O)(O)O (stereo not shown)
Stability study: crystal form ([3]; 40° C./75% RH, open): Unchange
Stability study: crystal form ([3]; 60° C., sealed): Unchange
Appearance in solid state stability test [3]: didn't change
Stability study (purity) ([5]; 0 day): 99.34 Area %
Stability study (purity) ([5]; 40° C./75% RH, open, 1 week): 99.33 Area %
Stability study (purity) ([5]; 40° C./75% RH, open, 2 weeks): 99.35 Area %
Stability study (purity) ([5]; 60° C., sealed, 1 week): 99.32 Area %
Stability study (purity) ([5]; 60° C., sealed, 2 weeks): 99.16 Area %
Crystal form after moisture absorption (XRPD before and after the DVS test) [7]: doesn't change
Weight gain by moisture absorption (DVS) ([7]; at 70% RH): 1.95%
Weight gain by moisture absorption (DVS) ([7]; at a humidity of 85% RH): 0.72%
Weight gain by moisture absorption (DVS) ([7]; from 0% RH to 95% RH, 25° C.): 6.5%

Structure (SMILES): Br.Cc1nc2cnc3ccoc3c2n1C1CCC(CC#N)OC1 (stereo not shown)
Crystal form after moisture absorption (XRPD before and after the DVS test) [7]: changed
Weight gain by moisture absorption (DVS) ([7]; from 0% RH to 95% RH, 25° C.): 11.84%

Stability study: crystal form ([3]; 40° C./75% RH, open): Change
Stability study: crystal form ([3]; 60° C., sealed): Change
Appearance in solid state stability test [3]: didn't change
Stability study (purity) ([5]; 0 day): 99.80 Area %
Stability study (purity) ([5]; 40° C./75% RH, open, 1 week): 99.82 Area %
Stability study (purity) ([5]; 40° C./75% RH, open, 2 weeks): 99.82 Area %
Stability study (purity) ([5]; 60° C., sealed, 1 week): 99.81 Area %
Stability study (purity) ([5]; 60° C., sealed, 2 weeks): 99.83 Area %
solubility at 30 min (physchem; [11]): 2590 µg/mL (≈ 8.74 mM)
solubility at 2 h (physchem; [11]): 1860 µg/mL (≈ 6.28 mM)
solubility at 4 h (physchem; [11]): 1810 µg/mL (≈ 6.11 mM)
solubility at 24 h (physchem; [11]): 1560 µg/mL (≈ 5.26 mM)
solubility at 30 min (physchem; [12]): 2910 µg/mL (≈ 9.82 mM)
solubility at 2 h (physchem; [12]): 2200 µg/mL (≈ 7.42 mM)
solubility at 4 h (physchem; [12]): 2610 µg/mL (≈ 8.81 mM)
solubility at 24 h (physchem; [12]): 3290 µg/mL (≈ 11.1 mM)
solubility at 30 min (physchem; [13]): 16400 µg/mL (≈ 55.3 mM)
solubility at 2 h (physchem; [13]): 17000 µg/mL (≈ 57.2 mM)
solubility at 4 h (physchem; [13]): 15200 µg/mL (≈ 51.2 mM)
solubility at 24 h (physchem; [13]): 16400 µg/mL (≈ 55.4 mM)
solubility at 30 min (physchem; water): 1350 µg/mL (≈ 4.56 mM)
solubility at 2 h (physchem; water): 1730 µg/mL (≈ 5.84 mM)
solubility at 4 h (physchem; water): 1490 µg/mL (≈ 5.03 mM)
solubility at 24 h (physchem; water): 1430 µg/mL (≈ 4.83 mM)
Crystal form after moisture absorption (XRPD before and after the DVS test) [7]: the crystal form changes
Weight gain by moisture absorption (DVS) ([7]; from 0% RH to 95% RH, 25° C.): 13.86%
Structure (SMILES): Cc1nc2cnc3ccoc3c2n1[C@H]1CC[C@H](CC#N)OC1

Structure (SMILES): Cc1nc2cnc3ccoc3c2n1C1CCC(CC#N)OC1.O=S(=O)(O)c1ccccc1 (stereo not shown)
Crystal form after moisture absorption (XRPD before and after the DVS test) [7]: doesn't change
Weight gain by moisture absorption (DVS) ([7]; at 70% RH): 0.97%
Weight gain by moisture absorption (DVS) ([7]; at a humidity of 85% RH): 0.54%
Weight gain by moisture absorption (DVS) ([7]; from 0% RH to 95% RH, 25° C.): 4.6%

IC50 (TYK2): < 10 nM
Structure (SMILES): Cc1nc2cnc3ccoc3c2n1[C@H]1CC[C@H](CC#N)OC1 [compound of formula I, 2-[(2R,5S)-5-[2-methylfuro[3,2-b]imidazo[4,5-d]pyridin-1-yl]tetrahydropyran-2-yl] acetonitrile]
Inhibition of thrombopoietin-induced STAT3 phosphorylation [9]: does not show selective inhibition
Inhibition of IL-6-induced STAT3 phosphorylation [10]: selective inhibition
JAK1 inhibition (JAK1): potent and selective JAK1 inhibitor
